In US7060725B2, “Substituted sulfamate anticonvulsant derivatives” (Janssen Pharmaceutica N.V., priority 2002, dated 2006):

What was measured:
[1] = system: maximal electroshock seizure (MES-induced seizure spread); assay: Maximal electroshock seizure (MES) test, mouse; format: in vivo, mice
Method: Anticonvulsant activity was determined using the standard MES model for generalized tonic-clonic seizures (Swinyard E A, Woodhead J H, White H S, Franklin M R, In: Levy R H, Mattson R H, Meldrum B S, Penry J K, Dreifuss F E eds. Antiepileptic drugs. New York: Raven Press, 1989:85–102).
An electric stimulus of 0.2 sec duration, 60 Hz, 50 mA in mice, 150 mA in rats, was delivered via corneal electrodes primed with an electrolyte solution containing an anesthetic agent (0.5% tetracaine hydrochloride in 0.9% saline).
Mice or rats were randomly selected into control and test groups. The animals were dosed with vehicle or test compound, at varying concentrations. […] Rats were subjected to electrical stimulus at time intervals between 15 minutes and 4 hours following administration of test compound. Abolition of the hind limb tonic extensor component was an indication of the test compound's ability to inhibit MES-induced seizure spread.
The ED50 (the calculated dose required to block the hindlimb tonic-extensor component of the maximal electroshock seizure in 50% of the animals tested) was calculated. A probit analysis (Finney D J. Probit Analysis. Cambridge, England: Cambridge University Press, 1971) was used to calculate the ED50.
Following the mouse procedure described above, representative compounds of the instant invention were tested for biological activity in the mouse, with results as listed in Table 5. Mouse activity is listed as number of mice active/total number of mice tested @ time after administration of the test compound.

[2] = system: maximal electroshock seizure (MES-induced seizure spread); assay: Maximal electroshock seizure (MES) test, rat; format: in vivo, rats
Method: Anticonvulsant activity was determined using the standard MES model for generalized tonic-clonic seizures (Swinyard E A, Woodhead J H, White H S, Franklin M R, In: […], Meldrum […], Dreifuss F E eds. Antiepileptic drugs. New York: Raven Press, 1989:85-102). An electric stimulus of 0.2 sec duration, 60 Hz, 50 mA in mice, 150 mA in rats, was delivered via corneal electrodes primed with an electrolyte solution containing an anesthetic agent (0.5% tetracaine hydrochloride in 0.9% saline). Mice or rats were randomly selected into control and test groups. The animals were dosed with vehicle or test compound, at varying concentrations. Mice were subjected to the electrical stimulus at 30 minutes and 4 hours following administration of test compound. […] Abolition of the hind limb tonic extensor component was an indication of the test compound's ability to inhibit MES-induced seizure spread. […] A probit analysis (Finney D J. Probit Analysis. Cambridge, England: Cambridge University Press, 1971) was used to calculate the ED50. Following the rat procedure described above, representative compounds of the instant invention were tested for biological activity in the rat, with results as listed in Table 6 and 7. Rat activity is listed as number of rats active/total number of rats tested @ time after administration of the test compound.

[3] = 100 mg/kg, @ 4 hrs after administration
[4] = 300 mg/kg, @ 0.5 hrs after administration
[5] = 300 mg/kg, @ 4 hrs after administration
[6] = 100 mg/kg, @ 0.5 hrs after administration

SMILES: CON(C)S(=O)(=O)OCC12OCC3OC(C)(C)OC3C1OC(C)(C)O2 (centres unmarked) [Compound 11]
- Mouse Activity ([1]; dosage 30, 100, 300 mg/kg): No activity
- ED50 ([2]; @ 4 hrs): 26.75 @ 4 hrs m/k
- Rat Activity (oral) (number of rats active/total number of rats tested) ([2]; 30 mg/kg, @ 0.5 hrs): 2/3 @ 0.5 hrs
- Rat Activity (oral) (number of rats active/total number of rats tested) ([2]; 30 mg/kg, @ 2 hrs): 2/3 @ 2 hrs
- Rat Activity (oral) (number of rats active/total number of rats tested) ([2]; 30 mg/kg, @ 4 hrs): 2/3 @ 4 hrs

SMILES: CN(O)S(=O)(=O)OCC12OCC3OC(C)(C)OC3C1OC(C)(C)O2 (centres unmarked) [Compound 12]
- Mouse Activity ([1]; dosage 30, 100, 300 mg/kg): No activity
- Rat Activity (oral) (number of rats active/total number of rats tested) ([2]; 15 mg/kg, @ 1 hr): 1/4 @ 1 hr

SMILES: CC1(C)OC2COC3(COS(=O)(=O)NC(=O)O[Si](c4ccccc4)(c4ccccc4)c4ccccc4)OC(C)(C)OC3C2O1 (centres unmarked) [Compound 13]
- Mouse Activity ([1]; dosage 30, 100, 300 mg/kg): No activity
- Rat Activity (oral) (number of rats active/total number of rats tested) ([2]; 30 mg/kg, @ 0.5 hrs): 1/4 @ 0.5 hrs
- Rat Activity (oral) (number of rats active/total number of rats tested) ([2]; 30 mg/kg, @ 1 hr): 1/4 @ 1 hr

SMILES: CC(C)(C)OC(=O)NS(=O)(=O)OC[C@@]12OC[C@H]3OC(C)(C)OC3[C@@H]1OC(C)(C)O2 (stereo partly drawn) [Compound 14, N-t-butoxycarbonyl-2,3:4,5-bis-O-(1-methylethylidene)-β-D-fructopyranose sulfamate]
- Mouse Activity ([1]; dosage 30, 100, 300 mg/kg): No activity
- Rat Activity (oral) (number of rats active/total number of rats tested) ([2]; 30 mg/kg, @ 2 hrs): 3/4 @ 2 hrs
- Rat Activity (oral) (number of rats active/total number of rats tested) ([2]; 30 mg/kg, @ 4 hrs): 4/4 @ 4 hrs

SMILES: CC1(C)OC2[C@@H](CO[C@@]3(COS(=O)(=O)NC(=O)OCc4ccccc4)OC(C)(C)O[C@@H]23)O1 (stereo partly drawn) [Compound 15, N-benzyloxycarbonyl-2,3:4,5-bis-O-(1-methylethylidene)-β-D-fructopyranose sulfamate]
- Mouse Activity (number of mice active/total number of mice tested) ([1]; 100 mg/kg, @ 1 hr after administration): 3/3 @ 1 hr
- Mouse Activity (number of mice active/total number of mice tested) [1, 3]: 2/3 @ 4 hrs
- Mouse Activity (number of mice active/total number of mice tested) [1, 4]: 1/1 @ 0.5 hrs
- Mouse Activity (number of mice active/total number of mice tested) [1, 5]: 1/1 @ 4 hrs
- Mouse Activity ([1]; dosage 30 mg/kg): No activity

SMILES: CC1(C)O[C@@H]2[C@@H](CO[C@@]3(COS(=O)(=O)[N-]C(=O)OCc4ccccc4)OC(C)(C)O[C@@H]23)O1.[Na+] [Compound 17, N-(benzyloxy-carbonyl)-2,3:4,5-bis-O-(1-methylethylidene)-β-D-fructopyranose sulfamate sodium salt]
- ED50 ([2]; @ 4 hrs): 10.37 @ 4 hrs, m/k
- ED50 ([2]; @ 6 hrs): 3.26 @ 6 hrs m/k
- Rat Activity (oral) (number of rats active/total number of rats tested) ([2]; 30 mg/kg, @ 0.25 hrs): 1/4 @ 0.25 hrs
- Rat Activity (oral) (number of rats active/total number of rats tested) ([2]; 30 mg/kg, @ 0.5 hrs): 2/4 @ 0.5 hrs
- Rat Activity (oral) (number of rats active/total number of rats tested) ([2]; 30 mg/kg, @ 1 hr): 1/4 @ 1 hr
- Rat Activity (oral) (number of rats active/total number of rats tested) ([2]; 30 mg/kg, @ 2 hrs): 4/4 @ 2 hrs
- Rat Activity (oral) (number of rats active/total number of rats tested) ([2]; 30 mg/kg, @ 4 hrs): 4/4 @ 4 hrs

SMILES: CC(=O)[N-]S(=O)(=O)OC[C@@]12OC[C@H]3OC(C)(C)OC3[C@@H]1OC(C)(C)O2.[Na+] (stereo partly drawn) [Compound 18, N-acetyl-2,3:4,5-bis-O-(1-methylethylidene)-β-D-fructopyranose sulfamate sodium salt]
- Mouse Activity (number of mice active/total number of mice tested) [1, 6]: 1/3 @ 0.5 hrs
- Mouse Activity (number of mice active/total number of mice tested) [1, 3]: 2/3 @ 4 hrs
- Mouse Activity (number of mice active/total number of mice tested) [1, 4]: 1/1 @ 0.5 hrs
- Mouse Activity (number of mice active/total number of mice tested) [1, 5]: 1/1 @ 4 hrs
- Mouse Activity ([1]; dosage 30 mg/kg): No activity
- Rat Activity (oral) (number of rats active/total number of rats tested) ([2]; 30 mg/kg, @ 0.25 hrs): 1/4 @ 0.25 hrs
- Rat Activity (oral) (number of rats active/total number of rats tested) ([2]; 30 mg/kg, @ 0.5 hrs): 1/4 @ 0.5 hrs
- Rat Activity (oral) (number of rats active/total number of rats tested) ([2]; 30 mg/kg, @ 2 hrs): 1/4 @ 2 hrs
- Rat Activity (oral) (number of rats active/total number of rats tested) ([2]; 30 mg/kg, @ 4 hrs): 3/4 @ 4 hrs

SMILES: CCC(=O)[N-]S(=O)(=O)OCC12OCC3OC(C)(C)OC3C1OC(C)(C)O2.[Na+] (centres unmarked) [Compound 19]
- Mouse Activity (number of mice active/total number of mice tested) [1, 6]: 0/3 @ 0.5 hrs
- Mouse Activity (number of mice active/total number of mice tested) [1, 3]: 3/3 @ 4 hrs
- Mouse Activity (number of mice active/total number of mice tested) [1, 4]: 1/1 @ 0.5 hrs
- Mouse Activity (number of mice active/total number of mice tested) [1, 5]: 1/1 @ 4 hrs
- Mouse Activity ([1]; dosage 30 mg/kg): No activity
- ED50 ([2]; @ 4 hrs): 11.22 @ 4 hrs m/k
- Rat Activity (oral) (number of rats active/total number of rats tested) ([2]; 30 mg/kg, @ 0.25 hrs): 1/4 @ 0.25 hrs
- Rat Activity (oral) (number of rats active/total number of rats tested) ([2]; 30 mg/kg, @ 0.5 hrs): 0/4 @ 0.5 hrs
- Rat Activity (oral) (number of rats active/total number of rats tested) ([2]; 30 mg/kg, @ 1 hr): 1/4 @ 1 hr
- Rat Activity (oral) (number of rats active/total number of rats tested) ([2]; 30 mg/kg, @ 2 hrs): 4/4 @ 2 hrs
- Rat Activity (oral) (number of rats active/total number of rats tested) ([2]; 30 mg/kg, @ 4 hrs): 4/4 @ 4 hrs

SMILES: CC1(C)OC2COC3(COS(=O)(=O)NCCC(=O)O)OC(C)(C)OC3C2O1 (centres unmarked) [Compound 35]
- Mouse Activity (number of mice active/total number of mice tested) [1, 4]: 1/1 @ 0.5 hrs
- Mouse Activity ([1]; dosage 30, 100 mg/kg): No Activity
